From publication PMC6757289, “Design and Characterization of SGK3-PROTAC1, an Isoform Specific SGK3 Kinase PROTAC Degrader” (ACS Chemical Biology, 2019) come the findings set out here.

Common to all, as to experiment: kinase profiling panel
Format in all cases: biochemical
Conditions in all cases: read-out: % Activity Remaining

The target in assay [1] is EPH-A2 (Homo sapiens, UniProt P29317). The text has this: (§1) Protein kinase profiling against a Dundee panel of 140 protein kinases was undertaken at the International Centre for Protein Kinase Profiling. The result for each kinase was presented as a mean kinase activity of the reaction taken in triplicate relative to a control sample treated with DMSO. Assay conditions and abbreviations are available at http://www.kinase-screen.mrc.ac.uk.

For assay [2], the target named is CSK (Homo sapiens, UniProt P41240).
Text: as §1

The target of assay [3] is T1, MKK6 (Homo sapiens, UniProt P52564).
T1 sequence (P52564 1-334): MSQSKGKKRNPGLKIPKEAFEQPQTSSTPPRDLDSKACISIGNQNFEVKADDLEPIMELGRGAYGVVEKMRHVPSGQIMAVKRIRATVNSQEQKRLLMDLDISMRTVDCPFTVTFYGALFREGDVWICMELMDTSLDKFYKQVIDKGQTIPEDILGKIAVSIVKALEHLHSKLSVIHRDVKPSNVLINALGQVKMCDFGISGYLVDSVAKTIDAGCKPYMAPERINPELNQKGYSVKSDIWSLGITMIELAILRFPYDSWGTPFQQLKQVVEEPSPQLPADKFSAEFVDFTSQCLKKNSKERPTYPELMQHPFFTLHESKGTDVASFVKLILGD
Text: as §1

Assay [4] addresses T2, p38 gamma MAPK (Homo sapiens, UniProt P53778).
T2 sequence (P53778 1-367): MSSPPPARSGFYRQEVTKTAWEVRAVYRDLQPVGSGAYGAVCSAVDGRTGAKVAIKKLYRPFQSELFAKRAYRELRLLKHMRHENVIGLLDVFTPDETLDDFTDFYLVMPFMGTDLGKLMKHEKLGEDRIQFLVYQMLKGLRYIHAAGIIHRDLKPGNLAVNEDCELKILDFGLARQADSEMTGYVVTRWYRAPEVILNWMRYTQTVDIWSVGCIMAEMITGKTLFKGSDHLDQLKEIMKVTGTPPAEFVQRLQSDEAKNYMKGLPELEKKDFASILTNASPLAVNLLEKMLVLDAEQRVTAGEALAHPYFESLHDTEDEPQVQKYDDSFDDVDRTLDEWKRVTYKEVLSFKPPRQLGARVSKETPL
Text: as §1

For assay [5], the target named is CAMKK beta (Homo sapiens, UniProt Q96RR4).
Text: as §1

In assay [6] the target is MEKK1 (Homo sapiens, UniProt Q13233).
Text: as §1

Assay [7] concerns the target ERK5 (Homo sapiens, UniProt Q13164).
Text: as §1

Assay [8] concerns the target EF2K (Homo sapiens, UniProt O00418).
Text: as §1

Assay [9] concerns the target MST4 (Homo sapiens, UniProt Q9P289).
Text: as §1

The target of assay [10] is T3, EIF2AK3 (Homo sapiens, UniProt Q9NZJ5).
T3 sequence (Q9NZJ5 30-1116): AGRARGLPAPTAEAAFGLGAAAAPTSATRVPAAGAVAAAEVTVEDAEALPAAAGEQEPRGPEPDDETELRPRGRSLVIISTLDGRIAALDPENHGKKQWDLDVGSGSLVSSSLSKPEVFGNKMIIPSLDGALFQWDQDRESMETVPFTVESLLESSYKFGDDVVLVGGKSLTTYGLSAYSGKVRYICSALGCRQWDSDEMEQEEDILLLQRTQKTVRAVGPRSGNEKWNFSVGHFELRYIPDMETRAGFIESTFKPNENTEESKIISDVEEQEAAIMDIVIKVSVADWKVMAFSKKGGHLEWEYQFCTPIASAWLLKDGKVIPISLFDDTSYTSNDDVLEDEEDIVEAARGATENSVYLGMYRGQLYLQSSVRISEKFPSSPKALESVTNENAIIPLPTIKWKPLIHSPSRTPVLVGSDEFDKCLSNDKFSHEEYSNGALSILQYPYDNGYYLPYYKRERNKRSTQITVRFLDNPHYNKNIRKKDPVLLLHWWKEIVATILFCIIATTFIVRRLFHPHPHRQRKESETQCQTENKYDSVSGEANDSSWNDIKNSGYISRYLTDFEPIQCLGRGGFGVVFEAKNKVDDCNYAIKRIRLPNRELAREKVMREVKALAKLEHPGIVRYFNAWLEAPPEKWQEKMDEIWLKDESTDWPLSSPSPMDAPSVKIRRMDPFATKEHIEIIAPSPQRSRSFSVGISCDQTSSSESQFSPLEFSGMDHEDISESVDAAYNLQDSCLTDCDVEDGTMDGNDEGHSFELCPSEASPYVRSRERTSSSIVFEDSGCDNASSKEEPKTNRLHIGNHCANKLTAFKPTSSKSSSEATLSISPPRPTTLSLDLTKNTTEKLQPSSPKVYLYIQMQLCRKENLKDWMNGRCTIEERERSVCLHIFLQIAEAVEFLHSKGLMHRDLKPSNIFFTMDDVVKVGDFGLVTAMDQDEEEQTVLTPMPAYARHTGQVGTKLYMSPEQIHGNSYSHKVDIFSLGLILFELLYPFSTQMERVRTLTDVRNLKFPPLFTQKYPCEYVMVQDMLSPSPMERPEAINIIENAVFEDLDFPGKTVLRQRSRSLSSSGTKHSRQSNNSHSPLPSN
Text: as §1

Assay [11] deals with GSK3 beta (Homo sapiens, UniProt P49841).
Text: as §1

Assay [12] addresses DAPK1 (Homo sapiens, UniProt P53355).
Text: as §1

Assay [13] has as its target T4, SGK1 (Homo sapiens, UniProt O00141).
T4 sequence (O00141 1-431): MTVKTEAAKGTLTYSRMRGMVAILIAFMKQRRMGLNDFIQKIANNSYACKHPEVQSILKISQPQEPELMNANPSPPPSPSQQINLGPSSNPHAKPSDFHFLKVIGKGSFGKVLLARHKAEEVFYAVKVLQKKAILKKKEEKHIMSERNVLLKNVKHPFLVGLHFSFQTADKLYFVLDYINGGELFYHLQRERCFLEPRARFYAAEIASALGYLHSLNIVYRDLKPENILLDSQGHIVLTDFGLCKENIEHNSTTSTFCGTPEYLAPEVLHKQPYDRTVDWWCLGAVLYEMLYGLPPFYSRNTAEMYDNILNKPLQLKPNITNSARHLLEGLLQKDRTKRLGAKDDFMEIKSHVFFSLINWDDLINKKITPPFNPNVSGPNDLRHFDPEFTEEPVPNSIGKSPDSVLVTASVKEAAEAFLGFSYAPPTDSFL
Text: as §1

Like-named read-outs stand apart in the source and are kept apart here.

In general, remaining activity refers to the signal under treatment as a percentage of the control signal.

ERK5, sequence (Q13164 whole entry): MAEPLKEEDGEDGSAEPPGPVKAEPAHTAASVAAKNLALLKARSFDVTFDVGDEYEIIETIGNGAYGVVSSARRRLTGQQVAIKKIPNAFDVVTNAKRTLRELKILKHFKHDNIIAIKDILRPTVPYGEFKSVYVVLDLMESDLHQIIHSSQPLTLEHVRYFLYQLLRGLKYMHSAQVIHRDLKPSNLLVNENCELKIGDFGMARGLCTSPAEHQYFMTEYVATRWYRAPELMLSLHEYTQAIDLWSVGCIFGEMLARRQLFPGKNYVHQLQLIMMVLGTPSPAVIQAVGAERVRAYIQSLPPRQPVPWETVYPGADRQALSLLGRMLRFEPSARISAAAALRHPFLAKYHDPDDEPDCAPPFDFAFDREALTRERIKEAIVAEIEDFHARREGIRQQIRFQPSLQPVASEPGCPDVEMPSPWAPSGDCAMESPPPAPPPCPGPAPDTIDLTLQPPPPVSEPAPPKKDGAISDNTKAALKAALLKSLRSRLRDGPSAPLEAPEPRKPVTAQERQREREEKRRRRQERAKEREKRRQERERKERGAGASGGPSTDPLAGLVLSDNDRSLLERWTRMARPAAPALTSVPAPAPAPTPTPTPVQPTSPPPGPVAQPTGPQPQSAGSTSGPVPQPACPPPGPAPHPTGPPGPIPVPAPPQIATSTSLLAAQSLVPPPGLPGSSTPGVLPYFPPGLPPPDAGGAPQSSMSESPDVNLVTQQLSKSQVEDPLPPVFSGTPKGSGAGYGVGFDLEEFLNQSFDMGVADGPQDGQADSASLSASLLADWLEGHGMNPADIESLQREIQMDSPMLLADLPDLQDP
DAPK1, sequence (P53355 whole entry): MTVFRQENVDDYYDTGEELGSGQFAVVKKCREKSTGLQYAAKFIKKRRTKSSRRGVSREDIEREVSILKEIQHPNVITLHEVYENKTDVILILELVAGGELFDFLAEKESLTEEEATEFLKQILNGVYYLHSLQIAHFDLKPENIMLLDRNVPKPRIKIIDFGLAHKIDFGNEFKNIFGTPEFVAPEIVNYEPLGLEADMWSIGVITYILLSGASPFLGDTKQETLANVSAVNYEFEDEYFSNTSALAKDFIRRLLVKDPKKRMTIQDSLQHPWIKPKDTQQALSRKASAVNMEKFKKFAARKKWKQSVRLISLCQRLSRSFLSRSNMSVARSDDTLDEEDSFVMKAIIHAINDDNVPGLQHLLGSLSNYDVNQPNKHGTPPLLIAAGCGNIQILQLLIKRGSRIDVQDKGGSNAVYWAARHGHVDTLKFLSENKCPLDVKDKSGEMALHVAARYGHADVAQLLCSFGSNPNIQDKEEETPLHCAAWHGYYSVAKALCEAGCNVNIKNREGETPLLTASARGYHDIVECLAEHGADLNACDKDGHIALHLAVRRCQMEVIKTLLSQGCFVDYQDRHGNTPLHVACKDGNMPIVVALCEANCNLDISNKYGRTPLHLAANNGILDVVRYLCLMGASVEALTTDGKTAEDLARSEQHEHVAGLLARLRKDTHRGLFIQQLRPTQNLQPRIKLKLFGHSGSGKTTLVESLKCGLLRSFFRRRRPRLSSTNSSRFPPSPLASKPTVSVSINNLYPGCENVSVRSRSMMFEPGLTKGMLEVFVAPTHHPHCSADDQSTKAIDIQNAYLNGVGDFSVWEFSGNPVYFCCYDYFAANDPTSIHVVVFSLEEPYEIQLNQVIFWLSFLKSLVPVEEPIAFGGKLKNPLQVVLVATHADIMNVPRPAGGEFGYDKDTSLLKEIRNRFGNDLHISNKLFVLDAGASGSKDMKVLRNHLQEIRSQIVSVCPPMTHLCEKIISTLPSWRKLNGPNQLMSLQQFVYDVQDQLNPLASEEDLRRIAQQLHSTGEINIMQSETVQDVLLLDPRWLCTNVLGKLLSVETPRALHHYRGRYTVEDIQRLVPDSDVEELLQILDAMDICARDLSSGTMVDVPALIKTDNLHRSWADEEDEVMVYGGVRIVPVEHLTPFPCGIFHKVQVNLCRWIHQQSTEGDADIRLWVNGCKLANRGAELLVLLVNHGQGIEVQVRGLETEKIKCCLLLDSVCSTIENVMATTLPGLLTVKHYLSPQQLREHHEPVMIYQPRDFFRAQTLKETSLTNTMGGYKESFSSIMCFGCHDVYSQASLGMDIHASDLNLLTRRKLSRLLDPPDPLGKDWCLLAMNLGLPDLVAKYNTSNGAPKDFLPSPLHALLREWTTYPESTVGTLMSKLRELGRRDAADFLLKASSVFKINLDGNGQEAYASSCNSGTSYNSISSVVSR
CAMKK beta, sequence (Q96RR4 whole entry): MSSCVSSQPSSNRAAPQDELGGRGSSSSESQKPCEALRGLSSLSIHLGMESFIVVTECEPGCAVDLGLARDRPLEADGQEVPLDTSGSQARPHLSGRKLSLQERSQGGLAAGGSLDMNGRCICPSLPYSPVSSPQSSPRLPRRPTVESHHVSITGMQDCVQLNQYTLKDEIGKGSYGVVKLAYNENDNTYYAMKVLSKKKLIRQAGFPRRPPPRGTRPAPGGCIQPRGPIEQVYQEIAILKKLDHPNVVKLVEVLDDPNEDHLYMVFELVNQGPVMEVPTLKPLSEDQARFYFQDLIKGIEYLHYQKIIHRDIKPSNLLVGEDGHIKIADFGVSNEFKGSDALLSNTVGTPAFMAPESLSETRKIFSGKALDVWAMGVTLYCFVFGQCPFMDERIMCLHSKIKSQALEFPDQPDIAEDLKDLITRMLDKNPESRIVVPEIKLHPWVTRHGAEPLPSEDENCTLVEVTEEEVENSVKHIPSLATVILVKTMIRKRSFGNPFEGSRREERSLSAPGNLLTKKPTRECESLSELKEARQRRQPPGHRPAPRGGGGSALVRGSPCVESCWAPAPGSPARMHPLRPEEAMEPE
MEKK1, sequence (Q13233 whole entry): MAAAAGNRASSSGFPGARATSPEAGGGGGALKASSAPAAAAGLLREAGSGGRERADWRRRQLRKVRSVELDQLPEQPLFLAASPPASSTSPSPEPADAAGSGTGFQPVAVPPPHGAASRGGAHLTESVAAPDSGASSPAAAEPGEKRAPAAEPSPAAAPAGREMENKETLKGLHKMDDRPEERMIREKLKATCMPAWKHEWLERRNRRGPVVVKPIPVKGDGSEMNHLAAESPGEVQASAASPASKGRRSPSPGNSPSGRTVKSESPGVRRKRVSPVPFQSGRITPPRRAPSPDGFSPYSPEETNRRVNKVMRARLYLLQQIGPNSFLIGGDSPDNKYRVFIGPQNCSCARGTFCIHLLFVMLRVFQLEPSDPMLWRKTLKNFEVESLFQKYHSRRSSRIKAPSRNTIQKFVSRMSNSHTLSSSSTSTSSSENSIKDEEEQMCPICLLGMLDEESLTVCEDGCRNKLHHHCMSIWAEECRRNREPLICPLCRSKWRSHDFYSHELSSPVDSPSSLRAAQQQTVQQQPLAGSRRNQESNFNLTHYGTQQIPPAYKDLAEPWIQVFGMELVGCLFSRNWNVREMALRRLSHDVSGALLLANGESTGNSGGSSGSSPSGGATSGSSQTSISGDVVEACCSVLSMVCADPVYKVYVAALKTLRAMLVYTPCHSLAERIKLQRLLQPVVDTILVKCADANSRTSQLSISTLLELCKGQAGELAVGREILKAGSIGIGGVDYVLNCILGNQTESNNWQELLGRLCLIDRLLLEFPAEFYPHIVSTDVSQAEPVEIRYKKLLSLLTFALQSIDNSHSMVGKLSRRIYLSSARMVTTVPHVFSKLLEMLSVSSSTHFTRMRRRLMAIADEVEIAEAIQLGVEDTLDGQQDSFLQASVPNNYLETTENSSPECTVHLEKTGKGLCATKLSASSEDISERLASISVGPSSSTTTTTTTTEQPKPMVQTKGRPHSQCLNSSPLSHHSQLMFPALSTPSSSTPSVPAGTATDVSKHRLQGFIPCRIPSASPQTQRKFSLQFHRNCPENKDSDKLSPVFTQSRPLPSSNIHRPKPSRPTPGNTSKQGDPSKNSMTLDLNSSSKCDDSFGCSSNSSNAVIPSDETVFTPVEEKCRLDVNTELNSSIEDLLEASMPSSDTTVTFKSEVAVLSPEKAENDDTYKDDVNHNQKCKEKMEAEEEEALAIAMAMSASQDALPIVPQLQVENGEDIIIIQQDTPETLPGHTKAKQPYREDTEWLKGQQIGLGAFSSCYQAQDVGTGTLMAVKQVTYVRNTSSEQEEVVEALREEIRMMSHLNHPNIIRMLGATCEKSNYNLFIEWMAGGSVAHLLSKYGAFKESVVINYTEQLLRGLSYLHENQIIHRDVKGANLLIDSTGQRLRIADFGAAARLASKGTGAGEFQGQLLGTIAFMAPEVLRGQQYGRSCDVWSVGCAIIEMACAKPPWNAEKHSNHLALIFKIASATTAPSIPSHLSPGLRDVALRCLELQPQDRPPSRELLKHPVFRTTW
MST4, sequence (Q9P289 whole entry): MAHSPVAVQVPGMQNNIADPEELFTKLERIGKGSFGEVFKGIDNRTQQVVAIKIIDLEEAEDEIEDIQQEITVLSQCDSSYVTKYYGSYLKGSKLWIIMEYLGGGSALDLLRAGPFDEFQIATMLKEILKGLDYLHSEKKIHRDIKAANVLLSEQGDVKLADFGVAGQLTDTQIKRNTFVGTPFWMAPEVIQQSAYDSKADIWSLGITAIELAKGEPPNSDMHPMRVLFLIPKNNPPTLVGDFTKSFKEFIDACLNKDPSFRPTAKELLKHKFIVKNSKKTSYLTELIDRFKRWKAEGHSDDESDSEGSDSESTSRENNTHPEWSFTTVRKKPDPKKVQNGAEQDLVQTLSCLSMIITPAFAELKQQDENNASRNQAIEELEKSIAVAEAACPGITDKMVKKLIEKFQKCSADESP

On to `COc1ccc(Cl)c(S(=O)(=O)Nc2ccc(-c3nc(OC[C@H]4CNCCO4)c4c(C)n[nH]c4n3)cc2)c1` [290-R, reference compound], for which the remaining activity at 1 µM was determined as 109% in assay [1]; 66% in assay [2]; 102% in [3]; 112% in assay [4]; 77% in assay [5]; 112% in [6]. The remaining activity at 1 µM in assay [7] is 84%; in [8], 112%; in [9], 50%; in [10], 66%; in [11] it was 90%; in assay [12] it was 87%. For the same compound, the remaining activity at 1 µM in assay [13] is 2%.
Take `Cc1ccc(F)c(S(=O)(=O)Nc2ccc(-c3nc(OC[C@H]4CNCCO4)c4cn[nH]c4n3)cc2)c1` [308-R, reference compound]: the remaining activity at 1 µM in [1] stood at 113%; in assay [2], 96%; in assay [3], 66%; in assay [4], 111%; in assay [5], 106%; in [6], 115%. The remaining activity at 1 µM in assay [7] stood at 73%; in assay [8], 128%; in assay [9], 98%; in assay [10], 63%; in assay [11], 92%; in assay [12], 91%. Moreover, in [13], the remaining activity at 1 µM amounted to 10%.
Consider `Cc1ccc(F)c(S(=O)(=O)Nc2ccc(-c3nc(OC[C@H]4CN(CCCCCCOCCOCCOCC(=O)N[C@H](C(=O)N5C[C@H](O)C[C@H]5C(=O)NCc5ccc(-c6scnc6C)cc5)C(C)(C)C)CCO4)c4cn[nH]c4n3)cc2)c1` [SGK3-PROTAC1], for which the remaining activity at 1 µM in [1] (1 µM) was determined as 94%; in [2] (1 µM), 118%; in assay [3] (1 µM), 123%; in assay [4] (1 µM) it was 107%; in assay [5] (1 µM), 99%; in assay [6] (1 µM), 124%. Further, the remaining activity at 1 µM in [7] (1 µM) was 102%; in [8] (1 µM) it was 98%; in assay [9] (1 µM), 106%; in assay [10] (1 µM) it was 106%; in assay [11] (1 µM), 108%; in [12] (1 µM), 100%. In assay [13] (1 µM), the remaining activity at 1 µM came to 34%.
`Cc1ccc(F)c(S(=O)(=O)Nc2ccc(-c3nc(OC[C@H]4CN(CCCCCCOCCOCCOCC(=O)N[C@H](C(=O)N5C[C@@H](O)C[C@H]5C(=O)NCc5ccc(-c6scnc6C)cc5)C(C)(C)C)CCO4)c4cn[nH]c4n3)cc2)c1` [cisSGK3-PROTAC1]: the remaining activity at 1 µM was 104% in [1] (1 µM); 113% in assay [2] (1 µM); 108% in assay [3] (1 µM); 127% in [4] (1 µM); 108% in assay [5] (1 µM); 128% in assay [6] (1 µM). The remaining activity at 1 µM in assay [7] (1 µM) is 108%; in assay [8] (1 µM), 105%; in [9] (1 µM), 99%; in assay [10] (1 µM) it was 111%; in assay [11] (1 µM), 106%; in assay [12] (1 µM), 108%. The remaining activity at 1 µM in [13] (1 µM) came to 51%.
